We go through 24 compounds from patent US12037339B2, “Substituted imidazoles as GLP-1 receptor agonists” (Eccogene Inc., priority 2020, dated 2024).

For the assay, the target named is (Homo sapiens, UniProt P43220). In words: h-GLP-1 activity assay (cAMP HTRF, HEK293 cells with stable expression of human GLP-1). The assay is classed as cell-based. The following applies: relative EC50, 10 nM human GLP-1 set as 100% response, 30 min at 37° C. The procedure: Human GLP-1 agonizing activity was detected in HEK293 cells with stable expression of human GLP-1 by Cisbio cAMP Gs dynamic kit (Catalog #62AM4PEC) according to manufacturer's protocol. Briefly, cells were collected and resuspended in assay buffer containing 0.1% BSA and 0.5 mM of IBMX at concentration to 2.5×10^5 cells/mL. Two μL 5× compound solution and 8 μL cell suspension were added to each well of low-volume 384 white assay plate. After 30 min incubation at 37° C., 5 μL cAMP-d2 working solution and 5 μL anti-cAMP antibody-cryptate were added to each well, and incubate at room temperature for 1 hr. Series dilution of cAMP was used as standard. Human GLP-1 (7-37) was used as positive control and 10 nM human GLP-1 was set as 100% response. HTRF signals were read at 665 and 615 nm with EnVision plate reader and calculated cAMP concentration by interpolation to the standard curve. The EC50 value of the tested compounds was calculated by fitting the dose response curve using a 4-parameter non-linear regression routine and relative EC50 was presented in Table 29.
Sequence of (Homo sapiens, UniProt P43220) (P43220 24-463): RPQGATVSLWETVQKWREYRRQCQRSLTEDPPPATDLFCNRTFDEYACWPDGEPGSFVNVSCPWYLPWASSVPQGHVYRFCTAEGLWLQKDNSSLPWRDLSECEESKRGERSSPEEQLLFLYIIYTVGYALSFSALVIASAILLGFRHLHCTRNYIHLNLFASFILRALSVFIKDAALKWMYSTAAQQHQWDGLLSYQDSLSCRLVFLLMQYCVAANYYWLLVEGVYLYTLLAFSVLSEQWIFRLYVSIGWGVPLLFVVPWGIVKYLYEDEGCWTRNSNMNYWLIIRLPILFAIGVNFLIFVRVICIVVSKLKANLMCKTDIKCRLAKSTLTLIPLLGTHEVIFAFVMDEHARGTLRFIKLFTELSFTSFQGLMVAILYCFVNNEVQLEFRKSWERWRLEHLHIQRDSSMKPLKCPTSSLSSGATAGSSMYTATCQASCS

Turning to `C[C@H]1c2c(nn(C34CC(C3)C4)c2-n2ccn(-c3ccc4c(cnn4C)c3F)c2=O)CCN1C(=O)c1cc2cc([C@@H]3CCOC(C)(C)C3)ccc2n1C1(c2noc(=O)[nH]2)CC1` (single isomer, unassigned) [Compound 61], the concentration for a half-maximal effect (EC50) is 20 to 100 nM.

`COCC12CCC(n3ccn(-c4c(-c5ccc(F)cc5)nn5c4[C@H](C)N(C(=O)c4cc6cc([C@@H]7CCOC(C)(C)C7)ccc6n4[C@@]4(c6noc(=O)[nH]6)C[C@@H]4C)CC5)c3=O)(CC1)CC2` (single isomer, unassigned) [Compound 62]: the EC50 lay within 20 to 100 nM.

`COCC12CCC(n3ccn(-c4c(-c5ccc(F)cc5)nn5c4[C@H](C)N(C(=O)c4cc6cc([C@H]7CCOC(C)(C)C7)ccc6n4[C@@]4(c6noc(=O)[nH]6)C[C@@H]4C)CC5)c3=O)(CC1)CC2` (single isomer, unassigned) [Compound 63]: the concentration for a half-maximal effect (EC50) is above 100 nM.

Regarding `C[C@H]1c2c(-n3ccn(-c4ccc5c(cnn5C)c4F)c3=O)c(-c3ccc(F)c(C(F)(F)F)c3)nn2CCN1C(=O)c1cc2cc([C@@H]3CCOC(C)(C)C3)ccc2n1C1(c2noc(=O)[nH]2)CC1` (single isomer, unassigned) [Compound 65], the half-maximal effective concentration (EC50) is below 20 nM.

For the compound `C[C@@H]1c2c(-n3ccn(-c4ccc5c(cnn5C)c4F)c3=O)c(-c3ccc(F)c(C(F)(F)F)c3)nn2CCN1C(=O)c1cc2cc([C@@H]3CCOC(C)(C)C3)ccc2n1C1(c2noc(=O)[nH]2)CC1` (single isomer, unassigned) [Compound 66], the concentration giving a half-maximal response (EC50) was above 100 nM.

In turn, `C[C@H]1c2c(nn(-c3ccc(F)c(Cl)c3)c2-n2ccn(-c3ccc4c(cnn4C)c3F)c2=O)CCN1C(=O)c1cc2cc([C@@H]3CCOC(C)(C)C3)ccn2c1C1(c2noc(=O)[nH]2)CC1` (single isomer, unassigned) [Compound 67] displayed an EC50 below 20 nM.

Turning to `Cc1cc(-c2nn3c(c2-n2ccn(-c4ccc5c(cnn5C)c4F)c2=O)[C@@H](C)N(C(=O)c2cc4cc([C@@H]5CCOC(C)(C)C5)ccn4c2C2(c4noc(=O)[nH]4)CC2)CC3)cc(C)c1F` (single isomer, unassigned) [Compound 68], the EC50 was below 20 nM.

`Cc1cc(-c2nn3c(c2-n2ccn(-c4ccc5c(cnn5C)c4F)c2=O)[C@@H](C)N(C(=O)c2cn4cc([C@@H]5CCOC(C)(C)C5)ccc4c2C2(c4noc(=O)[nH]4)CC2)CC3)cc(C)c1F` (single isomer, unassigned) [Compound 69] gave an EC50 below 20 nM.

For the compound `C[C@H]1c2c(nn(-c3ccc(F)c(F)c3)c2-n2ccn(-c3ccc4c(cnn4C)c3F)c2=O)CCN1C(=O)c1cn2cc([C@@H]3CCOC(C)(C)C3)ccc2c1C1(c2noc(=O)[nH]2)CC1` (single isomer, unassigned) [Compound 70], the EC50 is below 20 nM.

Compound `C[C@H]1c2c(nn(-c3ccc(F)c(C(F)(F)F)c3)c2-n2ccn(-c3ccc4c(cnn4C)c3F)c2=O)CCN1C(=O)c1cn2cc([C@@H]3CCOC(C)(C)C3)ccc2c1C1(c2noc(=O)[nH]2)CC1` (single isomer, unassigned) [Compound 71] registered an EC50 below 20 nM.

Turning to `C[C@H]1c2c(nn(-c3cc(F)c(F)c(F)c3)c2-n2ccn(-c3ccc4c(cnn4C)c3F)c2=O)CCN1C(=O)c1cc2cc([C@@H]3CCOC(C)(C)C3)ccn2c1C1(c2noc(=O)[nH]2)CC1` (single isomer, unassigned) [Compound 72], the concentration giving a half-maximal response (EC50) was below 20 nM.

`C[C@H]1c2c(nn(-c3ccc(F)c(C(F)(F)F)c3)c2-n2ccn(-c3ccc4c(cnn4C)c3F)c2=O)CCN1C(=O)c1cc2cc([C@@H]3CCOC(C)(C)C3)ccn2c1C1(c2noc(=O)[nH]2)CC1` (single isomer, unassigned) [Compound 74]: the EC50 is below 20 nM.

Turning to `C[C@H]1c2c(nn(-c3cc(F)c(F)c(F)c3)c2-n2ccn(-c3ccc4c(cnn4C)c3F)c2=O)CCN1C(=O)c1cn2cc([C@@H]3CCOC(C)(C)C3)ccc2c1C1(c2noc(=O)[nH]2)CC1` (single isomer, unassigned) [Compound 75], the EC50 was below 20 nM.

The compound `Cc1cc(-n2nc3c(c2-n2ccn(-c4ccc5c(cnn5C)c4F)c2=O)[C@H](C)N(C(=O)c2cc4cc([C@@H]5CCOC(C)(C)C5)ccn4c2C2(c4noc(=O)[nH]4)CC2)CC3)ccc1F` (single isomer, unassigned) [Compound 77] yielded a half-maximal effective concentration (EC50) below 20 nM.

`C[C@H]1c2c(nn(-c3ccc(F)c(F)c3)c2-n2ccn(-c3ccc4c(cnn4C)c3F)c2=O)CCN1C(=O)c1cc2cc([C@@H]3CCOC(C)(C)C3)ccn2c1C1(c2noc(=O)[nH]2)CC1` (single isomer, unassigned) [Compound 78] yielded a half-maximal effective concentration (EC50) below 20 nM.

`Cc1cc(-n2nc3c(c2-n2ccn(-c4ccn5c(C)nnc5c4)c2=O)[C@H](C)N(C(=O)c2cn4cc([C@@H]5CCOC(C)(C)C5)ccc4c2C2(c4noc(=O)[nH]4)CC2)CC3)cc(C)c1F` (single isomer, unassigned) [Compound 79]: the EC50 was below 20 nM.

`C[C@H]1c2c(nn(-c3ccc(F)c(OC(F)(F)F)c3)c2-n2ccn(-c3ccc4c(cnn4C)c3F)c2=O)CCN1C(=O)c1cn2cc([C@@H]3CCOC(C)(C)C3)ccc2c1C1(c2noc(=O)[nH]2)CC1` (single isomer, unassigned) [Compound 80] returned an EC50 below 20 nM.

Compound `C[C@H]1c2c(nn(-c3ccc(F)c(OC(F)(F)F)c3)c2-n2ccn(-c3ccc4c(cnn4C)c3F)c2=O)CCN1C(=O)c1cc2cc([C@@H]3CCOC(C)(C)C3)ccn2c1C1(c2noc(=O)[nH]2)CC1` (single isomer, unassigned) [Compound 81] displayed an EC50 below 20 nM.

Regarding `Cc1cc(-n2nc3c(c2-n2ccn(-c4ccc5c(cnn5C)c4F)c2=O)[C@H](C)N(C(=O)c2nn4cc([C@H]5CCOC(C)(C)C5)ccc4c2C2(c4noc(=O)[nH]4)CC2)CC3)cc(C)c1F` (single isomer, unassigned) [Compound 82], the EC50 was 20 to 100 nM.

Compound `Cc1cc(-n2nc3c(c2-n2ccn(-c4ccc5c(cnn5C)c4F)c2=O)[C@H](C)N(C(=O)c2nn4cc([C@@H]5CCOC(C)(C)C5)ccc4c2C2(c4noc(=O)[nH]4)CC2)CC3)cc(C)c1F` (single isomer, unassigned) [Compound 83] showed an EC50 below 20 nM.

The compound `C[C@H]1c2c(nn(-c3ccc(F)c(C4CC4)c3)c2-n2ccn(-c3ccc4c(cnn4C)c3F)c2=O)CCN1C(=O)c1nn2cc([C@@H]3CCOC(C)(C)C3)ccc2c1C1(c2noc(=O)[nH]2)CC1` (single isomer, unassigned) [Compound 84] displayed a half-maximal effective concentration (EC50) below 20 nM.

`C[C@H]1c2c(nn(-c3ccc(F)c(C4CC4)c3)c2-n2ccn(-c3ccc4c(cnn4C)c3F)c2=O)CCN1C(=O)c1c(C2(c3noc(=O)[nH]3)CC2)c2ccc([C@@H]3CCOC(C)(C)C3)cn2c1Cl` (single isomer, unassigned) [Compound 85]: the concentration for a half-maximal effect (EC50) is 20 to 100 nM.

In turn, `Cc1cc(-n2nc3c(c2-n2ccn(-c4ccc5c(cnn5C)c4F)c2=O)[C@H](C)N(C(=O)c2cn4cc([C@H]5CCOC6(CC6)C5)ccc4c2C2(c4noc(=O)[nH]4)CC2)CC3)cc(C)c1F` (single isomer, unassigned) [Compound 86] came in with an EC50 below 20 nM.

For `Cc1cc(-n2nc3c(c2-n2ccn(-c4ccc5c(cnn5C)c4F)c2=O)[C@H](C)N(C(=O)c2cn4cc([C@@H]5CCOC6(CC6)C5)ccc4c2C2(c4noc(=O)[nH]4)CC2)CC3)cc(C)c1F` (single isomer, unassigned) [Compound 87], the EC50 is below 20 nM.
